Source: US8853251B2, “Ester pro-drugs of [3-(1-(1H-imidazol-4-YL)ethyl)-2-methylphenyl] methanol for treating retinal diseases” (Allergan, Inc., priority 2010, dated 2014)

Columns and labels:
[1] = test system: blue light model of retinal degeneration in rats; assay: The Blue Light Model of retinal degeneration; format: in vivo, rat; details: male Sprague Dawley rats, subcutaneous infusion pumps 1 mg/kg/day starting two days before blue light (4 hours, 6100-6500 lux), OCT at 7 days post exposure
Protocol: Pro-drug iso-Butyric acid 3-[(S)-1-(1H-imidazol-4-yl)-ethyl]-2-methyl-benzyl ester is evaluated in the blue light model of retinal degeneration in rats. The drugs is administered continuously with subcutaneous infusion pumps at a dose of 1 mg/kg/day starting two days before blue light exposure. Twenty 4-month old male Sprague Dawley rats (body weight 470-550 g) were used in this study. The animals were exposed to room light on a 12 hour light/12 hour dark cycle before the experiment. All animals were dark adapted overnight (16-20 hours) before blue light. Under the intensity of 6100-6500 lux, rats were exposed to blue light for 4 hours. After the blue light, rats were placed in the dark for another 3 days before returning to normal 12 hour light/12 hour dark. Ocular Coherence Tomography (OCT) measurement was performed at 7 days post blue light exposure.

[2] = test system: normal DB rabbits; assay: Visual Enhancement Model (sweep visual evoked potential acuity); format: in vivo, rabbit; details: pigmented (Dutch-Belted) rabbits, intravenous route, 10-30 minutes post-dose, conscious animals, bilateral recordings
Protocol: Spatial sweep visual evoked potential (sVEP) acuity is assessed with PowerDiva software version 1.8. Recordings were made bilaterally in conscious animals.

Structure (SMILES): Brc1c(NC2=NCCN2)ccc2nccnc12 [Brimonidine, reference compound]
- retinal thickness measured by OCT after blue light exposure [1]: did not prevent the change in retinal thickness

Structure (SMILES): Cc1c(COC(=O)C(C)C)cccc1[C@H](C)c1c[nH]cn1 [Compound 1, iso-Butyric acid 3-[(S)-1-(1H-imidazol-4-yl)-ethyl]-2-methyl-benzyl ester]
- retinal thickness measured by OCT after blue light exposure [1]: significantly reduced the damage caused by blue light
- Spatial sweep visual evoked potential (sVEP) acuity [2]: enhances visual acuity
